Measurements as given in US20250154165A1, “MULTIANTENNARY GLYCOLIPID MIMETICS” (CONSEJO SUPERIOR DE INVESTIGACIONES CIENTÍFICAS (CSIC), priority 2021, published 2025).

Experiments:
[1] = test system: Splenocytes treated with LPS; experiment: Suppression of LPS-induced inflammation (splenocytes in vitro); format: cell-based, mouse; details: splenocytes treated concurrently with compound and LPS (FIG. 1)
Description: FIG. 1. […] Splenocytes were treated concurrently with the compounds of the invention and LPS to assess the suppressive function of compounds on LPS-induced inflammation, with several compounds showing prominent suppressive function.
The whole spleen was surgically removed from a mouse and mechanically dissociated into a single cell suspension of splenocytes, which were then cultured in the complete RPMI 1640 medium (cRPMI). Human peripheral blood mononuclear cells (PBMCs) from healthy volunteers were collected from whole blood through gradient-centrifugation with Histopaque-1077 (Sigma-Aldrich).
Splenocytes were treated concurrently with the compounds of the invention and LPS to assess the suppressive function of compounds on LPS-induced inflammation.

[2] = test system: bone marrow-derived dendritic cells (BMDC) from MyD88 KO mice; experiment: MyD88 dependency of IL-12p40 production (BMDCs in vitro); format: cell-based; details: BMDC from MyD88 KO mice compared with BMDC from wild-type mice; dose-dependent (FIG. 15)
From the text: FIG. 15. […] The effect was dose-dependent, and the difference became more pronounced at a higher concentration.
To determine whether the adjuvancy function of the representative compound 12 is MyD88-dependent or not, we performed experiments with immune cells isolated from MyD88 knocked-out (KO) mice. […] Data are dose-dependent and differences become more pronounced at the higher concentrations. […] Taken together, the results support that compound 12 adjuvancy function is MyD88-dependent.

[3] = test system: OVA-induced AHR mouse model; experiment: Suppression of OVA-induced airway hyperreactivity (AHR) in vivo; details: OVA-induced AHR mouse model (FIG. 7)
Description: FIG. 7. […] The capability of selected compounds 8, 12, 18, and 27 in suppressing Th2 inflammation in vivo was assessed using the OAV-induced AHR mouse model.
(§1) For ovalbumin (OVA) challenge, mice were sensitized intraperitoneally (i.p.) with 50 μg of OVA with 2% alhydrogel adjuvant (InvivoGen). Mice were challenged three times with 50 μg of OVA on day 7 post-sensitization, either daily or every other day. Mice were sacrificed the day after the last OVA challenge. The scheme of the OT-1 adoptive transfer mouse model for examining the proliferation of CD8^+ T cells in adjuvanting OVA challenge is described in FIG. 13.
Mice were anesthetized with 100 mg per kg body weight pentobarbital (Sigma-Aldrich), tracheotomised and mechanically ventilated via the FinePointe RC system (Buxco Research Systems, Wilmington, NC). Lung function was assessed by measuring lung resistance and dynamic compliance in response to increasing doses of aerosolized methacholine (1.25-40 mg/mL, Sigma-Aldrich).
Using the Th2 OVA-induced AHR mouse model, we assessed the capability of selected compounds 8, 12, 18, and 27 in suppressing Th2 inflammation.

[4] = test system: glycosidases of human fibroblast lysates; experiment: Stability of the glycosidic linkage to glycosidases upon incubation with human fibroblast lysates; format: in vitro ADME; details: 4 h, 37° C., compound solution 200 μM, 0.1 M citrate buffer pH 4.5
Description: The stability of the glyosidic linkage in compounds 2, 4, 6, 8, 10, 12, 14, 16, 18, 20, 22, 23, 25, 27 and 29, selected as representative examples, upon incubation with human fibroblast lysates for 4 h was checked. For such purpose, cells were scraped into ice-cold H2O (10^6 cells mL^−1) and lysed by sonication. Insoluble materials were removed by centrifugation at 15,000 rpm for 5 min and protein concentrations were determined with Protein Assay Rapid Kit (WAKO, Tokyo, Japan). 10 μL of the lysates in 0.1% Triton X-100 in distilled water were incubated at 37° C. with 20 μL of the compound solution (200 μM) in 0.1 M citrate buffer, pH 4.5. In control experiments, the activity of several lysosomas glycosidases was confirmed using fluorescent substrates. The substrates were 4-methylumbelliferone (4-MU)-conjugated β-D-glucopyranoside (for GCase), α-D-glucopyranoside (for α-glucosidase), α-D-galactopyranoside (for α-Galase) and β-D-galactopyranoside (for β-galactosidase). The liberated 4-methylumbelliferone was measured in the black-well plate with a Perkin Elmer Luminescence Spectrometer (excitation wavelength: 340 nm; emission: 460 nm).

[5] = test system: CD8+ T cells in the spleen, OT-1 adoptive transfer mouse model; experiment: Th1 immune response in vivo (CD8+ T cell proliferation, OT-1 adoptive transfer mouse model); details: OT-1 adoptive transfer mouse model (FIG. 13)
Description: FIG. 13. […] The adjuvancy capability of selected compounds 12 and 27 in vivo was assessed by their capability in promoting the proliferation of CD8^+ T cells in the spleen in the OT-1 adoptive transfer mouse model as described in the scheme.
as §1
Compounds 12 and 27 were injected into OT-1 mice (transgenic mice that express a TCR that is specific for an ovalbumin OVA peptide) to validate the Th1-biased immunomodulation property.

[6] = test system: DC-maturation marker CD86 in the spleen of mice; experiment: DC maturation in vivo (CD86 mRNA in spleen); details: mice injected with the compound (FIG. 12)
Description: FIG. 12. […] The capability of selected compounds 8, 12, 18, 27, and 29 in promoting DC maturation in vivo was assessed by the mRNA level of DC-maturation marker CD86 in the spleen of mice injected with the compounds of the invention.
The capability of selected compounds 8, 12, 18, 27, and 29 in promoting DC maturation in vivo was assessed by the mRNA level of DC-maturation marker CD86 in the spleen of mice injected with the compounds of the invention.

CCCCCCCCCCCCNC(=O)C(COC1C(O)C(O)C(O)C2COC(=O)N21)NC(=O)CCCCCCCCCCC (stereo not drawn) [Compound 12]
suppressive function on LPS-induced inflammation [1]: prominent inflammation-suppressing function
IL-12p40 production in response to compound [2]: severely curtailed
suppression of airway hyperreactivity (AHR) [3]: can suppress AHR onset
hydrolysis of the glycolipid mimetic (free polysubstituted 2-oxa-3-oxoindolizidine detected by gas chromatography) [4]: No traces of the free polysubstituted 2-oxa-3-oxoindolizidine
proliferation of CD8+ T cells in the spleen [5]: significant CD8^+ T cell proliferation
CD86 mRNA expression in the spleens of mice [6]: significant increase
